Assay results reported in ChEMBL document CHEMBL5370646, “Synthesis and Conformational Analysis of FR901464-Based RNA Splicing Modulators and Their Synergism in Drug-Resistant Cancers” (J Med Chem, 2023).

Assays:
A549 = experiment: Growth inhibition of human A549 cells assessed as reduction in cell viability incubated for 72 hrs; type: functional
DMS-53 [1] = experiment: Growth inhibition of human DMS-53 cells assessed as reduction in cell viability incubated for 72 hrs; type: functional
[2] = Growth inhibition of human CCD-841CoN cells assessed as reduction in cell viability incubated for 72 hrs; type: toxicity, cell-based
[3] = Growth inhibition of mouse FL83B cells assessed as reduction in cell viability incubated for 72 hrs; type: toxicity, cell-based
HCT-116 [4] = experiment: Modulation of RNA splicing in human HCT-116 cells assessed as decrease in SF3B1 phosphorylation at thr313 residue by Western blot analysis; type: functional, cell-based; details: dose 3-100 nM
HCT-116 [5] = experiment: Modulation of RNA splicing in human HCT-116 cells assessed as decrease in MCL-1S expression by Western blot analysis; type: functional, cell-based; details: dose 3-100 nM
DMS-114 [6] = experiment: Synergistic antiproliferative activity against human DMS-114 cells assessed as combination index at 1 nM incubated for 72 hrs in presence of 2.4 uM venetoclax by WST-1 assay; type: functional
DMS-114 [7] = experiment: Synergistic antiproliferative activity against human DMS-114 cells assessed as combination index at 3 nM incubated for 72 hrs in presence of 3.6 uM venetoclax by WST-1 assay; type: functional
DMS-114 [8] = experiment: Synergistic antiproliferative activity against human DMS-114 cells assessed as combination index at 1 nM incubated for 72 hrs in presence of 3.6 uM venetoclax by WST-1 assay; type: functional
DMS-114 [9] = experiment: Synergistic antiproliferative activity against human DMS-114 cells assessed as combination index at 1 nM incubated for 72 hrs in presence of 6 uM venetoclax by WST-1 assay; type: functional
DMS-114 [10] = experiment: Synergistic antiproliferative activity against human DMS-114 cells assessed as combination index at 2 nM incubated for 72 hrs in presence of 3.6 uM venetoclax by WST-1 assay; type: functional
DMS-114 [11] = experiment: Synergistic antiproliferative activity against human DMS-114 cells assessed as combination index at 2 nM incubated for 72 hrs in presence of 4.8 uM venetoclax by WST-1 assay; type: functional
DMS-114 [12] = experiment: Synergistic antiproliferative activity against human DMS-114 cells assessed as combination index at 2 nM incubated for 72 hrs in presence of 12 uM venetoclax by WST-1 assay; type: functional
DMS-114 [13] = experiment: Synergistic antiproliferative activity against human DMS-114 cells assessed as combination index at 3 nM incubated for 72 hrs in presence of 2.4 uM venetoclax by WST-1 assay; type: functional
DMS-53 [14] = experiment: Synergistic antiproliferative activity against human DMS-53 cells assessed as combination index at 0.5 nM incubated for 72 hrs in presence of […] venetoclax by WST-1 assay; type: functional
DMS-53 [15] = experiment: Synergistic antiproliferative activity against human DMS-53 cells assessed as combination index at 0.5 nM incubated for 72 hrs in presence of […] venetoclax by WST-1 assay; type: functional
DMS-53 [16] = experiment: Synergistic antiproliferative activity against human DMS-53 cells assessed as combination index at 1 nM incubated for 72 hrs in presence of 25 uM venetoclax by WST-1 assay; type: functional
DMS-53 [17] = experiment: Synergistic antiproliferative activity against human DMS-53 cells assessed as combination index at 1 nM incubated for 72 hrs in presence of […] venetoclax by WST-1 assay; type: functional
DMS-53 [18] = experiment: Synergistic antiproliferative activity against human DMS-53 cells assessed as combination index at 1 nM incubated for 72 hrs in presence of […] venetoclax by WST-1 assay; type: functional
DMS-53 [19] = experiment: Synergistic antiproliferative activity against human DMS-53 cells assessed as combination index at 1.5 nM incubated for 72 hrs in presence of 25 uM venetoclax by WST-1 assay; type: functional
DMS-53 [20] = experiment: Synergistic antiproliferative activity against human DMS-53 cells assessed as combination index at 1.5 nM incubated for 72 hrs in presence of 50 uM venetoclax by WST-1 assay; type: functional
DMS-53 [21] = experiment: Synergistic antiproliferative activity against human DMS-53 cells assessed as combination index at 1.5 nM incubated for 72 hrs in presence of […] venetoclax by WST-1 assay; type: functional
DMS-53 [22] = experiment: Synergistic antiproliferative activity against human DMS-53 cells assessed as combination index at 1.5 nM incubated for 72 hrs in presence of […] venetoclax by WST-1 assay; type: functional
DMS-53 [23] = experiment: Synergistic antiproliferative activity against human DMS-53 cells assessed as combination index at 2 nM incubated for 72 hrs in presence of 50 […] by WST-1 assay; type: functional
DMS-53 [24] = experiment: Synergistic antiproliferative activity against human DMS-53 cells assessed as combination index at 2 nM incubated for 72 hrs in presence of […] venetoclax by WST-1 assay; type: functional
DMS-53 [25] = experiment: Synergistic antiproliferative activity against human DMS-53 cells assessed as combination index at 2 nM incubated for 72 hrs in presence of 200 […] by WST-1 assay; type: functional
[26] = Synergistic antiproliferative activity against human Osimertinib-resistant HCC827AR cell assessed as combination index at 1 nM incubated for 72 hrs in presence of 0.25 uM osimertinib by WST-1 assay; type: functional
[27] = Synergistic antiproliferative activity against human Osimertinib-resistant HCC827AR cell assessed as combination index at 1 nM incubated for 72 hrs in presence of 0.50 uM osimertinib by WST-1 assay; type: functional
[28] = Synergistic antiproliferative activity against human Osimertinib-resistant HCC827AR cell assessed as combination index at 1 nM incubated for 72 hrs in presence of 1 uM osimertinib by WST-1 assay; type: functional
[29] = Synergistic antiproliferative activity against human Osimertinib-resistant HCC827AR cell assessed as combination index at 1.5 nM incubated for 72 hrs in presence of 4 uM osimertinib by WST-1 assay; type: functional
[30] = Synergistic antiproliferative activity against human Osimertinib-resistant HCC827AR cell assessed as combination index at 2 nM incubated for 72 hrs in presence of 1 uM osimertinib by WST-1 assay; type: functional
[31] = Synergistic antiproliferative activity against human Osimertinib-resistant HCC827AR cell assessed as combination index at 2 nM incubated for 72 hrs in presence of 4 uM osimertinib by WST-1 assay; type: functional
[32] = Synergistic antiproliferative activity against human Osimertinib-resistant HCC827AR cell assessed as combination index at 2.5 nM incubated for 72 hrs in presence of 0.25 uM osimertinib by WST-1 assay; type: functional
[33] = Synergistic antiproliferative activity against human Osimertinib-resistant HCC827AR cell assessed as combination index at 2.5 nM incubated for 72 hrs in presence of 0.50 uM osimertinib by WST-1 assay; type: functional
[34] = Synergistic antiproliferative activity against human Osimertinib-resistant HCC827AR cell assessed as combination index at 2.5 nM incubated for 72 hrs in presence of 1 uM osimertinib by WST-1 assay; type: functional
[35] = Synergistic antiproliferative activity against human Osimertinib-resistant HCC827AR cell assessed as combination index at 2.5 nM incubated for 72 hrs in presence of 2 uM osimertinib by WST-1 assay; type: functional
[36] = Metabolic stability in CD1 mouse plasma measured after 48 hrs by LC-MS analysis; type: ADME, cell-free

COCO[C@@H](C)/C=C\C(=O)N[C@@H]1C[C@H](C)[C@H](C/C=C(C)/C=C/[C@H]2OC(C)(C)C[C@@]3(CO3)[C@@H]2O)O[C@@H]1C
GI50 (A549): 3.9 nM | GI50 (DMS-53 [1]): 2.7 nM | GI50 at 72 h [2]: 9.6 nM | GI50 at 72 h [3]: 5.7 nM | Activity (HCT-116 [4]): Dose-Dependent Effect | Activity (HCT-116 [5]): Dose-Dependent Effect | CI (DMS-114 [6]): 1.11 | CI (DMS-114 [7]): 0.23 | CI (DMS-114 [8]): 1.34 | CI (DMS-114 [9]): 1.46 | CI (DMS-114 [10]): 0.63 | CI (DMS-114 [11]): 0.66 | CI (DMS-114 [12]): 0.44 | CI (DMS-114 [13]): 0.21 | CI (DMS-53 [14]): 1.35 | CI (DMS-53 [15]): 1.52 | CI (DMS-53 [16]): 1.04 | CI (DMS-53 [17]): 1.26 | CI (DMS-53 [18]): 1.08 | CI (DMS-53 [19]): 0.7 | CI (DMS-53 [20]): 0.63 | CI (DMS-53 [21]): 0.67 | CI (DMS-53 [22]): 0.51 | CI (DMS-53 [23]): 0.47 | CI (DMS-53 [24]): 0.42 | CI (DMS-53 [25]): 0.4 | CI [26]: 1.06 | CI [27]: 1.42 | CI [28]: 1.48 | CI [29]: 0.92 | CI [30]: 1.2 | CI [31]: 0.87 | CI [32]: 0.83 | CI [33]: 0.99 | CI [34]: 1.04 | CI [35]: 0.99 | Stability [36]: Stable
